Data taken from the supplement of paper PMC11451515.

System: P12-Ichikawa
Experiment: cell viability relative to DMSO control; higher = less cytotoxic
Settings: 48 h
How it was run: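 Viability was expressed as a per-plate percentage of DMSO wells, with cell-free wells as background. Leukemia cells (NOMO1 or SEM at 500 cells/well, P12-Ichikawa at 1000 cells/well) were adapted for at least four passages in each medium and seeded in 1536-well plates (5 μl). Library compounds in DMSO were pin-dosed over an 11-point threefold series from 47 μM to 0.79 nM, and CellTiter-Glo One luminescence was read after 48 h at 37°C.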

[1] = RPMI 5 mM glucose + 10% dialyzed FBS, 0.000781 µM
[2] = RPMI 5 mM glucose + 10% dialyzed FBS, 0.00234 µM
[3] = RPMI 5 mM glucose + 10% dialyzed FBS, 0.00702 µM
[4] = RPMI 5 mM glucose + 10% dialyzed FBS, 0.0211 µM
[5] = RPMI 5 mM glucose + 10% dialyzed FBS, 0.0632 µM
[6] = RPMI 5 mM glucose + 10% dialyzed FBS, 0.19 µM
[7] = RPMI 5 mM glucose + 10% dialyzed FBS, 0.569 µM
[8] = RPMI 5 mM glucose + 10% dialyzed FBS, 1.71 µM
[9] = RPMI 5 mM glucose + 10% dialyzed FBS, 5.12 µM
[10] = RPMI 5 mM glucose + 10% dialyzed FBS, 15.4 µM
[11] = RPMI 5 mM glucose + 10% dialyzed FBS, 46.1 µM

## CCCCc1oc2ccccc2c1C(=O)c1cc(I)c(OCCN(CC)CC)c(I)c1
HPLM + 10% dialyzed FBS, 0.000781 µM
  cell viability: 114%
HPLM + 10% dialyzed FBS, 0.00234 µM
  cell viability: 114%
HPLM + 10% dialyzed FBS, 0.00702 µM
  cell viability: 113%
HPLM + 10% dialyzed FBS, 0.0211 µM
  cell viability: 109%
HPLM + 10% dialyzed FBS, 0.0632 µM
  cell viability: 115%
HPLM + 10% dialyzed FBS, 0.19 µM
  cell viability: 102%
HPLM + 10% dialyzed FBS, 0.569 µM
  cell viability: 110%
HPLM + 10% dialyzed FBS, 1.71 µM
  cell viability: 104%
HPLM + 10% dialyzed FBS, 5.12 µM
  cell viability: 104%
HPLM + 10% dialyzed FBS, 15.4 µM
  cell viability: 104%
HPLM + 10% dialyzed FBS, 46.1 µM
  cell viability: 91.1%
[1]
  cell viability: 106%
[2]
  cell viability: 114%
[3]
  cell viability: 115%
[4]
  cell viability: 114%
[5]
  cell viability: 111%
[6]
  cell viability: 107%
[7]
  cell viability: 116%
[8]
  cell viability: 106%
[9]
  cell viability: 103%
[10]
  cell viability: 103%
[11]
  cell viability: 94.5%

## CC1CCN(c2cc(N3CCN(C)CC3)ccc2NC(=O)c2cc(C#N)c[nH]2)CC1
[1]
  cell viability: 124%
[2]
  cell viability: 119%
[3]
  cell viability: 122%
[4]
  cell viability: 126%
[5]
  cell viability: 133%
[6]
  cell viability: 119%
[7]
  cell viability: 115%
[8]
  cell viability: 121%
[9]
  cell viability: 106%
[10]
  cell viability: 106%
[11]
  cell viability: 99.9%
